Assay results from US10519152B2, “Compounds and their use in treating cancer” (AstraZeneca AB, priority 2017, dated 2019).

Molecular target: T1, Estrogen Receptor (ERα) in MCF-7 human ductal carcinoma breast cell line (Homo sapiens, UniProt P03372)
T1 construct: endogenous in cells; host or cells: MCF-7
T1 sequence (P03372 1-595): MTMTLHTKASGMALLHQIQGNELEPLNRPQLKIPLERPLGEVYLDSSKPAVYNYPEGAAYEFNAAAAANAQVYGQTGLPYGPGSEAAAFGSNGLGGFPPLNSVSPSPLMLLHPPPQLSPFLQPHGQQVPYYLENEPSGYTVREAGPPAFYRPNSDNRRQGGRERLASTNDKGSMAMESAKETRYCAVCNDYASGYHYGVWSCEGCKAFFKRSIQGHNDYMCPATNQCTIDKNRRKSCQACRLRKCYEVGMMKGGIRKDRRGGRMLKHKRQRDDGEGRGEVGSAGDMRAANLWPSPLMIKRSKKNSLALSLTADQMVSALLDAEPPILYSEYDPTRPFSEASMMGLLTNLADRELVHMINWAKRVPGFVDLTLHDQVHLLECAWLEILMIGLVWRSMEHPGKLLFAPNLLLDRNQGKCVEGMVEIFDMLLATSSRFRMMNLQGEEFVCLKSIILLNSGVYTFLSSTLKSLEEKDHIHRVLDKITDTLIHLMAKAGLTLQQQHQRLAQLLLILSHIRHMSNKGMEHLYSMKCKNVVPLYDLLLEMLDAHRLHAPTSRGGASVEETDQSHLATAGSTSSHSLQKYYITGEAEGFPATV
Assay: MCF-7 ER degradation assay (cell based immuno-fluorescence)
Details: MCF-7 cells; for ER degradation ≥ 90% at 0.3 μM: ER degradation by fulvestrant at 0.3 μM is defined as 100%; for DC50: 18-22 hours incubation, 50% reduction of ERα expression, single experiment or average of two or more, read-out: MCF-7 ER degradation IC50
Method in brief: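 MCF-7 human ductal carcinoma breast cells were seeded at 3.75×10^4 cells per mL (40 μL per well) in 384 well plates with phenol red free DMEM containing 2 mM L-Glutamine and 5% (v/v) Charcoal/Dextran treated foetal calf serum. After overnight culture, compounds were acoustically dispensed, incubated 18-22 hours, then cells were formaldehyde-fixed and immunostained for ERα.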

## Cc1ncsc1-c1ccc(CNC(=O)[C@@H]2C[C@@H](O)CN2C(=O)[C@@H](NC(=O)COCCOCCOCCOc2cc(F)c([C@@H]3c4[nH]c5ccccc5c4C[C@@H](C)N3CC(F)(F)F)c(F)c2)C(C)(C)C)cc1 [Example 95, (2S,4R)-1-((S)-2-(tert-Butyl)-14-(3,5-difluoro-4-((1R,3R)-3-methyl-2-(2,2,2-trifluoroethyl)-2,3,4,9-tetrahydro-1H-pyrido[3,4-b]indol-1-yl)phenoxy)-4-oxo-6,9,12-trioxa-3-azatetradecanoyl)-4-hydroxy-N-(4-(4-methylthiazol-5-yl)benzyl)pyrrolidine-2-carboxamide]
  ER degradation ≥ 90% at 0.3 μM: ••
  DC50: 0.4 nM

## Cc1ncsc1-c1ccc(CNC(=O)[C@@H]2C[C@@H](O)CN2C(=O)[C@@H](NC(=O)COc2ccc(OCCNC(=O)/C=C/c3cc(F)c([C@@H]4c5[nH]c6ccccc6c5C[C@@H](C)N4CC(C)(C)F)c(F)c3)cc2)C(C)(C)C)cc1 [Example 61, (2S,4R)-1-((S)-2-(2-(4-(2-((E)-3-(3,5-difluoro-4-((1R,3R)-2-(2-fluoro-2-methylpropyl)-3-methyl-2,3,4,9-tetrahydro-1H-pyrido[3,4-b]indol-1-yl)phenyl)acrylamido)ethoxy)phenoxy)acetamido)-3,3-dimethylbutanoyl)-4-hydroxy-N-(4-(4-methylthiazol-5-yl)benzyl)pyrrolidine-2-carboxamide, Trifluoroacetic Acid]
  ER degradation ≥ 90% at 0.3 μM: ••
  DC50: 0.7 nM

## Cc1ncsc1-c1ccc(CNC(=O)[C@@H]2C[C@@H](O)CN2C(=O)[C@@H](NC(=O)Cc2ccc(OCCOCCNC(=O)/C=C/c3cc(F)c([C@@H]4c5[nH]c6ccccc6c5C[C@@H](C)N4CC(C)(C)F)c(F)c3)cc2)C(C)(C)C)cc1 [Example 66, (2S,4R)-1-((S)-2-(2-(4-(2-(2-((E)-3-(3,5-difluoro-4-((1R,3R)-2-(2-fluoro-2-methylpropyl)-3-methyl-2,3,4,9-tetrahydro-1H-pyrido[3,4-b]indol-1-yl)phenyl)acrylamido)ethoxy)ethoxy)phenyl)acetamido)-3,3-dimethylbutanoyl)-4-hydroxy-N-(4-(4-methylthiazol-5-yl)benzyl)pyrrolidine-2-carboxamide, Trifluoroacetic Acid]
  ER degradation ≥ 90% at 0.3 μM: •
  DC50: 2.2 nM

## Cc1ncsc1-c1ccc(CNC(=O)[C@@H]2C[C@@H](O)CN2C(=O)[C@@H](NC(=O)COCc2ccc(COc3cc(F)c([C@@H]4c5[nH]c6ccccc6c5C[C@@H](C)N4CC(C)(C)F)c(F)c3)nc2)C(C)(C)C)cc1 [Example 85, (2S,4R)-1-((S)-2-(2-((6-((3,5-difluoro-4-((1R,3R)-2-(2-fluoro-2-methylpropyl)-3-methyl-2,3,4,9-tetrahydro-1H-pyrido[3,4-b]indol-1-yl)phenoxy)methyl)pyridin-3-yl)methoxy)acetamido)-3,3-dimethylbutanoyl)-4-hydroxy-N-(4-(4-methylthiazol-5-yl)benzyl)pyrrolidine-2-carboxamide]
  ER degradation ≥ 90% at 0.3 μM: ••
  DC50: 0.6 nM

## Cc1ncsc1-c1ccc(CNC(=O)[C@@H]2C[C@@H](O)CN2C(=O)[C@@H](NC(=O)c2ccc(N3CCN(CCNC(=O)/C=C/c4cc(F)c([C@@H]5c6[nH]c7ccccc7c6C[C@@H](C)N5CC(C)(C)F)c(F)c4)CC3)cc2)C(C)(C)C)cc1 [Example 67, (2S,4R)-1-((S)-2-(4-(4-(2-((E)-3-(3,5-difluoro-4-((1R,3R)-2-(2-fluoro-2-methylpropyl)-3-methyl-2,3,4,9-tetrahydro-1H-pyrido[3,4-b]indol-1-yl)phenyl)acrylamido)ethyl)piperazin-1-yl)benzamido)-3,3-dimethylbutanoyl)-4-hydroxy-N-(4-(4-methylthiazol-5-yl)benzyl)pyrrolidine-2-carboxamide, Trifluoroacetic Acid]
  ER degradation ≥ 90% at 0.3 μM: •
  DC50: 4.5 nM

## Cc1ncsc1-c1ccc(CNC(=O)[C@@H]2C[C@@H](O)CN2C(=O)[C@@H](NC(=O)COCCCCCOc2cc(F)c([C@@H]3c4[nH]c5ccccc5c4C[C@@H](C)N3CC3(F)CC3)c(F)c2)C(C)(C)C)cc1 [Example 79, (2S,4R)-1-((S)-2-(2-((5-(3,5-difluoro-4-((1R,3R)-2-((1-fluorocyclopropyl)methyl)-3-methyl-2,3,4,9-tetrahydro-1H-pyrido[3,4-b]indol-1-yl)phenoxy)pentyl)oxy)acetamido)-3,3-dimethylbutanoyl)-4-hydroxy-N-(4-(4-methylthiazol-5-yl)benzyl)pyrrolidine-2-carboxamide]
  ER degradation ≥ 90% at 0.3 μM: •
  DC50: 2 nM

## Cc1ncsc1-c1ccc(CNC(=O)[C@@H]2C[C@@H](O)CN2C(=O)[C@@H](NC(=O)c2cnn(CCOCCNC(=O)/C=C/c3cc(F)c([C@@H]4c5[nH]c6ccccc6c5C[C@@H](C)N4CC(C)(C)F)c(F)c3)c2)C(C)(C)C)cc1 [Example 64, 1-(2-(2-((E)-3-(3,5-difluoro-4-((1R,3R)-2-(2-fluoro-2-methylpropyl)-3-methyl-2,3,4,9-tetrahydro-1H-pyrido[3,4-b]indol-1-yl)phenyl)acrylamido)ethoxy)ethyl)-N—((S)-1-((2S,4R)-4-hydroxy-2-((4-(4-methylthiazol-5-yl)benzyl)carbamoyl)pyrrolidin-5-yl)-3,3-dimethyl-1-oxobutan-2-yl)-1H-pyrazole-4-carboxamide, Trifluoroacetic Acid]
  ER degradation ≥ 90% at 0.3 μM: •
  DC50: 0.5 nM

## Cc1ncsc1-c1ccc(CNC(=O)[C@@H]2C[C@@H](O)CN2C(=O)[C@@H](NC(=O)COCCOCCOCC(=O)Nc2ccc([C@@H]3c4[nH]c5ccccc5c4C[C@@H](C)N3CC(C)(C)F)cc2)C(C)(C)C)cc1 [Example 57, (2S,4R)-1-((S)-2-(tert-butyl)-14-((4-((1R,3R)-2-(2-fluoro-2-methylpropyl)-3-methyl-2,3,4,9-tetrahydro-1H-pyrido[3,4-b]indol-1-yl)phenyl)amino)-4,14-dioxo-6,9,12-trioxa-3-azatetradecanoyl)-4-hydroxy-N-(4-(4-methylthiazol-5-yl)benzyl)pyrrolidine-2-carboxamide, Trifluoroacetic Acid]
  ER degradation ≥ 90% at 0.3 μM: •
  DC50: 0.9 nM

## Cc1ncsc1-c1ccc(CNC(=O)[C@@H]2C[C@@H](O)CN2C(=O)[C@@H](NC(=O)COCCOCCOCCCNC(=O)c2cc(F)c([C@@H]3c4[nH]c5ccccc5c4C[C@@H](C)N3CC(C)(C)F)c(F)c2)C(C)(C)C)cc1 [Example 84, (2S,4R)-1-((S)-16-(tert-Butyl)-1-(3,5-difluoro-4-((1R,3R)-2-(2-fluoro-2-methylpropyl)-3-methyl-2,3,4,9-tetrahydro-1H-pyrido[3,4-b]indol-1-yl)phenyl)-1,14-dioxo-6,9,12-trioxa-2,15-diazaheptadecan-17-oyl)-4-hydroxy-N-(4-(4-methylthiazol-5-yl)benzyl)pyrrolidine-2-carboxamide]
  ER degradation ≥ 90% at 0.3 μM: ••
  DC50: 0.7 nM

## Cc1ncsc1-c1ccc(CNC(=O)[C@@H]2C[C@@H](O)CN2C(=O)[C@@H](NC(=O)COCCCCCCCOc2cc(F)c([C@@H]3c4[nH]c5ccccc5c4C[C@@H](C)N3CC(F)(F)CO)c(F)c2)C(C)(C)C)cc1 [Example 78, (2S,4R)-1-((S)-2-(2-((7-(4-((1R,3R)-2-(2,2-Difluoro-3-hydroxypropyl)-3-methyl-2,3,4,9-tetrahydro-1H-pyrido[3,4-b]indol-1-yl)-3,5-difluorophenoxy)heptyl)oxy)acetamido)-3,3-dimethylbutanoyl)-4-hydroxy-N-(4-(4-methylthiazol-5-yl)benzyl)pyrrolidine-2-carboxamide]
  ER degradation ≥ 90% at 0.3 μM: ••
  DC50: 0.6 nM

## Cc1ncsc1-c1ccc(CNC(=O)[C@@H]2C[C@@H](O)CN2C(=O)[C@@H](NC(=O)COCCO[C@@H](C)[C@H](C)OCCOc2cc(F)c([C@@H]3c4[nH]c5ccccc5c4C[C@@H](C)N3CC(C)(C)F)c(F)c2)C(C)(C)C)cc1 [Example 82, (2S,4R)-1-((2S,10S,11S)-2-(tert-butyl)-14-(3,5-difluoro-4-((1R,3R)-2-(2-fluoro-2-methylpropyl)-3-methyl-2,3,4,9-tetrahydro-1H-pyrido[3,4-b]indol-1-yl)phenoxy)-10,11-dimethyl-4-oxo-6,9,12-trioxa-3-azatetradecanoyl)-4-hydroxy-N-(4-(4-methylthiazol-5-yl)benzyl)pyrrolidine-2-carboxamide]
  ER degradation ≥ 90% at 0.3 μM: ••
  DC50: 0.2 nM

## Cc1ncsc1-c1ccc(CNC(=O)[C@@H]2C[C@@H](O)CN2C(=O)[C@@H](NC(=O)COCc2ccc(OCCOc3cc(F)c([C@@H]4c5[nH]c6ccccc6c5C[C@@H](C)N4CC(C)(C)F)c(F)c3)cc2)C(C)(C)C)cc1 [Example 4, (2S,4R)-1-((S)-2-(2-((4-(2-(3,5-Difluoro-4-((1R,3R)-2-(2-fluoro-2-methylpropyl)-3-methyl-2,3,4,9-tetrahydro-1H-pyrido[3,4-b]indol-1-yl)phenoxy)ethoxy)benzyl)oxy)acetamido)-3,3-dimethylbutanoyl)-4-hydroxy-N-(4-(4-methylthiazol-5-yl)benzyl)pyrrolidine-2-carboxamide]
  ER degradation ≥ 90% at 0.3 μM: •
  DC50: 2.1 nM
